The record followed here is US20250163104A1, “MACROCYCLIC IMMUNOMODULATORS” (priority 2021, published 2025).

Where a SMILES comes first, the peptide text is derived from it. Bridges are numbered along the chain shown (N, C = ends). [ ]: non-standard residue; d: D form. The star is where a group is joined. ξ: configuration not given here. Phe(3-CF3) = N[C@@H](Cc1cccc(C(F)(F)F)c1)C(=O)O; Phe(4-COOH) = N[C@@H](Cc1ccc(C(=O)O)cc1)C(=O)O; Bip = N[C@@H](Cc1ccc(-c2ccccc2)cc1)C(=O)O; Abu(3R-NH2) = C[C@@H](N)[C@H](N)C(=O)O; Orn(N3) = [N-]=[N+]=NCCC[C@H](N)C(=O)O; Phe(3-Me) = Cc1cccc(C[C@H](N)C(=O)O)c1; Val(3-OH) = CC(C)(O)[C@H](N)C(=O)O; 4Pal = N[C@@H](Cc1ccncc1)C(=O)O; Cha = N[C@@H](CC1CCCCC1)C(=O)O; Cit = NC(=O)NCCC[C@H](N)C(=O)O; Thr(3ξ) = CC(O)[C@H](N)C(=O)O; Hpra = C#CCC[C@H](N)C(=O)O; Carboxymethyl = O=C(O)C*; Nle = CCCC[C@H](N)C(=O)O; Orn = NCCC[C@H](N)C(=O)O; Dab = NCC[C@H](N)C(=O)O; Dap = NC[C@H](N)C(=O)O; ξPra = C#CCC(N)C(=O)O; NH(CH2)3NH2 = NCCCN*; Propargyl = C#CC*

The experiment concerns the target T1, human PD-1 / PD-L1-Ig binding on Jurkat cell line over-expressing human PD-1 (Jurkat-PD-1) (Homo sapiens, UniProt Q15116).
T1 construct: expressed in transfected cells; host or cells: Jurkat
Put plainly: Jurkat-PD-1 Cell Binding High-Content Screening Assay (CBA). The experiment is classed as cell-based. The conditions noted are these: Jurkat-PD-1 cells, PE-labeled PD-L1-Ig 20 nM final; read-out: Jurkat HPD1_PDL1 IC50. In short, it runs like this: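 Binding of fluorescent PD-L1-Ig (phycoerythrin linked via the Ig tag, 20 nM final) to PD-1-overexpressing Jurkat cells was imaged after a 2 h, 37° C compound pretreatment and 1 hour ligand incubation.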

T1 sequence (Q15116 25-288): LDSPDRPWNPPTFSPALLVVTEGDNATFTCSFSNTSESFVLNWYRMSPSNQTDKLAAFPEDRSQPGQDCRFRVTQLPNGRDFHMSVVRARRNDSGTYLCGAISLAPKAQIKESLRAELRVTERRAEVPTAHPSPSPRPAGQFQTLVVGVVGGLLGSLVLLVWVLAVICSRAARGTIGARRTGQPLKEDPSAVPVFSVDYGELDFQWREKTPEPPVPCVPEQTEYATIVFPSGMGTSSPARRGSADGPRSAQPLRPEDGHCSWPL

Usually IC50 stands for the concentration at which inhibition is half-maximal. In the case of `CC(C)C[C@H]1NC(=O)[C@H](CCCN)NC(=O)[C@H](Cc2ccc(C(=O)O)cc2)NC(=O)[C@H](Cc2ccc(-c3ccccc3)cc2)NC(=O)[C@H](Cc2ccc(C(=O)O)cc2)NC(=O)[C@H](Cc2cccc(C(F)(F)F)c2)NC(=O)[C@H](CC(N)=O)NC(=O)[C@H](Cc2ccc(C(=O)O)cc2)NC(=O)[C@H]([C@@H](C)N)NC(=O)CSC[C@@H](C(=O)N[C@@H](CCN)C(N)=O)NC(=O)[C@H](CO)NC(=O)[C@H](C(C)(C)O)NC(=O)[C@H](CC2CCCCC2)NC(=O)[C@H](CCN)NC1=O` [Example 2717] ({CH2CO}-[Abu(3R-NH2)][Phe(4-COOH)]N[Phe(3-CF3)][Phe(4-COOH)][Bip][Phe(4-COOH)][Orn][dL][Dab][Cha][Val(3-OH)]SC[Dab]-NH2; thioether N-14), the half-inhibitory concentration (IC50) amounted to 35.6 nM.

Turning to `CC(C)C[C@H]1NC(=O)[C@H](CCCN)NC(=O)[C@H](CCC(=O)O)NC(=O)[C@H](Cc2ccc(-c3ccccc3)cc2)NC(=O)[C@H](C(C)C)NC(=O)[C@H](Cc2cccc(C(F)(F)F)c2)NC(=O)[C@H](CC(=O)O)NC(=O)[C@H](Cc2ccc(OCC(=O)O)cc2)NC(=O)[C@H](CN)NC(=O)CSC[C@@H](C(=O)N[C@@H](C)C(N)=O)NC(=O)[C@H]([C@@H](C)O)NC(=O)[C@H](C(C)C)NC(=O)[C@H](CC2CCCCC2)NC(=O)[C@H](CCN)NC1=O` [Compound 1458], the IC50 was found to be 17.9 nM.

As to `Cc1cccc(C[C@@H]2NC(=O)[C@H](CC(=O)O)NC(=O)[C@H](Cc3ccc(C(=O)O)cc3)NC(=O)[C@H](Cc3ccc(OCC(=O)O)cc3)NC(=O)CSC[C@@H](C(=O)NCC(N)=O)NC(=O)[C@H](CO)NC(=O)[C@H](C(C)C)NC(=O)[C@H](CC(C)C)NC(=O)[C@H](CCN)NC(=O)[C@@H](CC(C)C)NC(=O)[C@H](CCCN)NC(=O)[C@H](C(C)C)NC(=O)[C@H](Cc3ccc(-c4ccccc4)cc3)NC(=O)[C@H](CC(C)C)NC2=O)c1` [Compound 1260] ({CH2CO}-Y(Carboxymethyl)[Phe(4-COOH)]D[Phe(3-Me)]L[Bip]V[Orn][dL][Dab]LVSCG-NH2; thioether N-14), the IC50 was 7.4 nM.

Turning to `CC(=O)NCCCC[C@@H]1NC(=O)[C@H](CCCNC(N)=O)NC(=O)[C@H](Cc2ccc(-c3ccccc3)cc2)NC(=O)[C@H](C(C)C)NC(=O)[C@H](Cc2cccc(C)c2)NC(=O)[C@H](CC(N)=O)NC(=O)[C@H](Cc2ccc(OCC(=O)O)cc2)NC(=O)[C@H](Cc2ccccc2)NC(=O)CSC[C@@H](C(=O)N[C@@H](C)C(N)=O)NC(=O)[C@H](CO)NC(=O)[C@H](C(C)C)NC(=O)[C@H](CC2CCCCC2)NC(=O)[C@H](CC(N)=O)NC(=O)[C@@H](CC(C)C)NC1=O` [Compound 2501] ({CH2CO}-FY(Carboxymethyl)N[Phe(3-Me)]V[Bip][Cit]K(Ac)[dL]N[Cha]VSCA-NH2; thioether N-14), the half-inhibitory concentration (IC50) is 17.3 nM.

Regarding `C#CCC(NC(=O)[C@H](CCCNC(=N)N)NC(=O)[C@@H]1CSCC(=O)N[C@@H](Cc2ccncc2)C(=O)N[C@@H](Cc2ccc(OCC(=O)O)cc2)C(=O)N[C@@H](CC(=O)O)C(=O)N[C@@H](Cc2c[nH]c3ccccc23)C(=O)N[C@@H](C(C)C)C(=O)N[C@@H](Cc2ccc(-c3ccccc3)cc2)C(=O)N[C@@H]([C@@H](C)CC)C(=O)N[C@@H](CCCN)C(=O)N[C@H](CC(C)C)C(=O)N[C@@H](CCN)C(=O)N[C@@H](CC(C)C)C(=O)N[C@@H](C(C)C)C(=O)N[C@@H]([C@@H](C)O)C(=O)N1)C(N)=O` (stereo partly drawn) [Compound 1762] ({CH2CO}-[4Pal]Y(Carboxymethyl)DWV[Bip]I[Orn][dL][Dab]LVTCR[ξPra]-NH2; thioether N-14), the IC50 stood at 20.5 nM.

For `Cc1cccc(C[C@@H]2NC(=O)[C@H](CC(=O)O)NC(=O)[C@H](Cc3ccc(C(=O)O)cc3)NC(=O)[C@H](Cc3ccc(OCC(=O)O)cc3)NC(=O)CSC[C@@H](C(N)=O)NC(=O)[C@H]([C@@H](C)O)NC(=O)[C@H](C(C)C)NC(=O)[C@H](CC(C)C)NC(=O)[C@H](CCN)NC(=O)[C@@H](CC(C)C)NC(=O)[C@H](CCCN)NC(=O)[C@H](CCCNC(N)=O)NC(=O)[C@H](Cc3ccc(-c4ccccc4)cc3)NC(=O)[C@H](C(C)C)NC2=O)c1` [Compound 1557] ({CH2CO}-Y(Carboxymethyl)[Phe(4-COOH)]D[Phe(3-Me)]V[Bip][Cit][Orn][dL][Dab]LVTC-NH2; thioether N-14), the IC50 is 37.9 nM.

With `Cc1cccc(C[C@@H]2NC(=O)[C@H](CC(=O)O)NC(=O)[C@H](Cc3ccc(OCC(=O)O)cc3)NC(=O)[C@H](Cc3ccncc3)NC(=O)CSC[C@@H](C(=O)N[C@@H](CO)C(=O)NCCCN)NC(=O)[C@H](C(C)O)NC(=O)[C@H](C(C)(C)O)NC(=O)[C@H](CC3CCCCC3)NC(=O)[C@H](Cc3cnc[nH]3)NC(=O)[C@@H](CC(C)C)NC(=O)[C@H](CCCN)NC(=O)[C@H](Cc3ccc(OCC(=O)O)cc3)NC(=O)[C@H](Cc3ccc(-c4ccccc4)cc3)NC(=O)[C@H](Cc3ccc(OCC(=O)O)cc3)NC2=O)c1` (stereo partly drawn) [Compound 2647] ({CH2CO}-[4Pal]Y(Carboxymethyl)D[Phe(3-Me)]Y(Carboxymethyl)[Bip]Y(Carboxymethyl)[Orn][dL]H[Cha][Val(3-OH)][Thr(3ξ)]CS-{NH(CH2)3NH2}; thioether N-14), the IC50 stood at 22.8 nM.

Consider `C#CCOc1ccc(C[C@@H]2NC(=O)[C@H](CN)NC(=O)CSC[C@@H](C(=O)N[C@@H](CCCN=[N+]=[N-])C(N)=O)NC(=O)[C@H]([C@@H](C)O)NC(=O)[C@H](C(C)C)NC(=O)[C@H](CC3CCCCC3)NC(=O)[C@H](CCN)NC(=O)[C@@H](CC(C)C)NC(=O)[C@H](CCCN)NC(=O)[C@H](CCC(=O)O)NC(=O)[C@H](Cc3ccc(-c4ccccc4)cc3)NC(=O)[C@H](C(C)C)NC(=O)[C@H](Cc3c[nH]c4ccccc34)NC(=O)[C@H](CC(=O)O)NC2=O)cc1` [Compound 1537] ({CH2CO}-[Dap]Y(Propargyl)DWV[Bip]E[Orn][dL][Dab][Cha]VTC[Orn(N3)]-NH2; thioether N-14), for which the IC50 stood at 101 nM.

Take `CC(C)C[C@H]1NC(=O)[C@H](CN)NC(=O)[C@H](C(C)C)NC(=O)[C@H](Cc2ccc(-c3ccccc3)cc2)NC(=O)[C@H](C(C)C)NC(=O)[C@H](Cc2c[nH]c3ccccc23)NC(=O)[C@H](CC(=O)O)NC(=O)[C@H](Cc2ccncc2)NC(=O)[C@H](Cc2ccc(OCC(=O)O)cc2)NC(=O)CSC[C@@H](C(=O)NCC(N)=O)NC(=O)[C@H](CO)NC(=O)[C@H](C(C)C)NC(=O)[C@H](CC2CCCCC2)NC(=O)[C@H](CC(N)=O)NC1=O` [Compound 1456] ({CH2CO}-Y(Carboxymethyl)[4Pal]DWV[Bip]V[Dap][dL]N[Cha]VSCG-NH2; thioether N-14): the IC50 came out at 6.1 nM.

For the molecule `Cc1cccc(C[C@@H]2NC(=O)[C@H](CC(=O)O)NC(=O)[C@H](Cc3ccc(C(=O)O)cc3)NC(=O)[C@H](Cc3ccncc3)NC(=O)CSC[C@@H](C(N)=O)NC(=O)[C@H]([C@@H](C)O)NC(=O)[C@H](C(C)C)NC(=O)[C@H](CC(C)C)NC(=O)[C@H](CCN)NC(=O)[C@@H](CC(C)C)NC(=O)[C@H](CCCN)NC(=O)[C@H](CCCNC(N)=O)NC(=O)[C@H](Cc3ccc(-c4ccccc4)cc3)NC(=O)[C@H](C(C)C)NC2=O)c1` [Compound 2267] ({CH2CO}-[4Pal][Phe(4-COOH)]D[Phe(3-Me)]V[Bip][Cit][Orn][dL][Dab]LVTC-NH2; thioether N-14), the IC50 is 44.8 nM.

For the molecule `CC(C)C[C@@H]1NC(=O)[C@H](Cc2c[nH]c3ccccc23)NC(=O)[C@H](CC(=O)O)NC(=O)[C@H](Cc2ccc(C(=O)O)cc2)NC(=O)[C@H](Cc2ccc(OCC(=O)O)cc2)NC(=O)CSC[C@@H](C(=O)NCC(N)=O)NC(=O)[C@H](CO)NC(=O)[C@H](C(C)C)NC(=O)[C@H](CC2CCCCC2)NC(=O)[C@H](CC(N)=O)NC(=O)[C@@H](CC(C)C)NC(=O)[C@H](CCCN)NC(=O)[C@H](C(C)C)NC(=O)[C@H](Cc2ccc(-c3ccccc3)cc2)NC1=O` [Compound 1335] ({CH2CO}-Y(Carboxymethyl)[Phe(4-COOH)]DWL[Bip]V[Orn][dL]N[Cha]VSCG-NH2; thioether N-14), the IC50 was 20.9 nM.

Consider `Cc1cccc(C[C@@H]2NC(=O)[C@H](CC(=O)O)NC(=O)[C@H](Cc3ccc(OCC(=O)O)cc3)NC(=O)[C@H](Cc3ccncc3)NC(=O)CSC[C@@H](C(=O)N[C@@H](CCN)C(N)=O)NC(=O)[C@H](CCC(=O)O)NC(=O)[C@H](C(C)(C)O)NC(=O)[C@H](CC3CCCCC3)NC(=O)[C@H](CCN)NC(=O)[C@@H](CC(C)C)NC(=O)[C@H](CCCN)NC(=O)[C@H](Cc3ccc(C(=O)O)cc3)NC(=O)[C@H](Cc3ccc(-c4ccccc4)cc3)NC(=O)[C@H](Cc3ccc(C(=O)O)cc3)NC2=O)c1` [Compound 2677] ({CH2CO}-[4Pal]Y(Carboxymethyl)D[Phe(3-Me)][Phe(4-COOH)][Bip][Phe(4-COOH)][Orn][dL][Dab][Cha][Val(3-OH)]EC[Dab]-NH2; thioether N-14), for which the IC50 stood at 6 nM.

As to `CCCC[C@@H]1NC(=O)[C@H](CCN)NC(=O)[C@@H](CC(C)C)NC(=O)[C@H](CCCN)NC(=O)[C@H]([C@@H](C)CC)NC(=O)[C@H](Cc2ccc(-c3ccccc3)cc2)NC(=O)[C@H](C(C)C)NC(=O)[C@H](Cc2c[nH]c3ccccc23)NC(=O)[C@H](CC(=O)O)NC(=O)[C@H](Cc2ccc(O)cc2)NC(=O)[C@H](Cc2ccc(OCC(=O)O)cc2)NC(=O)CSC[C@@H](C(=O)N[C@@H](C)C(N)=O)NC(=O)[C@H]([C@@H](C)O)NC(=O)[C@H](C(C)C)NC1=O` [Compound 1168] ({CH2CO}-Y(Carboxymethyl)YDWV[Bip]I[Orn][dL][Dab][Nle]VTCA-NH2; thioether N-14), the IC50 was 26.3 nM.

For `C#CCC[C@@H]1NC(=O)[C@@H](CC(C)C)NC(=O)[C@H](CCCN)NC(=O)[C@H](C(C)C)NC(=O)[C@H](Cc2ccc(-c3ccccc3)cc2)NC(=O)[C@H](C(C)C)NC(=O)[C@H](Cc2cccc(C)c2)NC(=O)[C@H](CC(=O)O)NC(=O)[C@H](Cc2ccc(C(=O)O)cc2)NC(=O)[C@H](CN)NC(=O)CSC[C@@H](C(=O)N[C@@H](CCN)C(N)=O)NC(=O)[C@H]([C@@H](C)O)NC(=O)[C@H](C(C)C)NC(=O)[C@H](CC2CCCCC2)NC1=O` [Compound 2025] ({CH2CO}-[Dap][Phe(4-COOH)]D[Phe(3-Me)]V[Bip]V[Orn][dL][Hpra][Cha]VTC[Dab]-NH2; thioether N-14), the IC50 was 15 nM.
